We go through four compounds from patent US9034308B2, “Anti-sensitivity, anti-caries, anti-staining, anti-plaque ultra-mild oral hygiene agent” (RHODIA OPERATIONS, priority 2003, dated 2015).

For series [1] the following is noted: 14C labeling, in the presence of saliva; cited from earlier work.
Series [2] is described as follows: Interaction with calcium phosphates (foaming). In kind it is physicochemical. The conditions noted are these: 1 Kg powder added to 1800 ml of 10% solution, pH ~7. The method, then:
Disappearance of foaming was indicative of loss of surfactant from bulk solution. Increased hydrophobicity of the calcium phosphate was indicative of surfactant adsorption onto the solid particles.
A typical calcium based abrasive tooth paste formulation was prepared using dibasic calcium phosphate, dihydrate as the abrasive and conventional mixing techniques as shown below. […] This finding was in contrast to an earlier patent discussed above (U.S. Pat. No. 4,152,421) and was presumably so because of the strong interaction of the potassium dodecyl phosphate (1.2%) with the calcium phosphate abrasive.

The conditions of series [3]: 1% solution, in vitro; cited from earlier work.

As for dodecyl-3 EO monoalkyl phosphate, in series [1], the “amount bonded to 40 mg HA” value was 0.20 to 0.35 mg. On to `CCCCCCCCCCCCOP(=O)([O-])[O-].[K+].[K+]` [potassium dodecyl phosphate], for which the “foaming of the solution after addition of dibasic calcium phosphate, dihydrate” value in series [2] is “significantly reduced”. With hexadecyl-8 EO ethoxylate, the “amount bonded to 40 mg HA” value in series [1] is on record as less than 0.05 mg. Take dioctyl phosphate: the “rate of calcium demineralization on treated teeth” value in series [3] was “lower rate of calcium demineralization”.
